# Reference: patent US4264596A, “Maytansinoids, pharmaceutical compositions thereof and method of use thereof” (Takeda Chemical Industries, Ltd., priority 1980, dated 1981)
# Key:
# melanoma B-16 = assay: Antitumor therapeutic test in mice (life span prolongation), melanoma B-16 intraperitoneally transplanted, NCI-protocol 1,300; assay type: in vivo, mouse; details: i.p. once daily for 9 consecutive days
# Experimental: Therapeutic tests were carried out in mice according to NCI-protocol 1,300, Cancer Chemother, Reports, Part 3, 1972 , Vol.3, No.2, in which melanoma B-16 tumor cells had been intraperitoneally transplanted, compound (I) being administered intraperitoneally once daily for 9 consecutive days.
# Tetrahymena pyriformis W = assay: Antiprotozoal activity, growth inhibition by serial dilution method; assay type: cell-based; details: 28° C., 44 to 48 hours, pH 7.0, serial dilution method, read-out: Antiprotozoal activity, MIC (minimal inhibitory concentration)
# Experimental: Antiprotozoal activity of compound (I) was assayed with Tetrahymena pyriformis W as the test organism and a medium composed of 20 g tryptose-peptone (Difco Co.), 1 g yeast extract, 2 g glucose, 1000 ml distilled water, 10 ml 1 M phosphate buffer (pH 7.0) as the assay medium. The microorganism was incubated at 28° C. for 44 to 48 hours and the growth inhibitory activity of compound (I) was assayed by the serial dilution method.
structure (smiles),measurement,setting,value
"COC1C=CC=C(C)Cc2cc(OS(C)(=O)=O)c(Cl)c(c2)N(C)C(=O)CC(OC(=O)C(C)C)C2(C)OC2C(C)C2CC1(O)NC(=O)O2 (stereo not drawn) [PDM-3-C20-methenesulfonate, PDM-3-C20-methanesulfonate]","Antitumor activities B-16 (T/C %), life span prolongation",melanoma B-16; 6.2 μg/kg,154%
same,"Antitumor activities B-16 (T/C %), life span prolongation",melanoma B-16; 12.5 μg/kg,195%
same,"Antitumor activities B-16 (T/C %), life span prolongation",melanoma B-16; 25 μg/kg,178%
same,"Antitumor activities B-16 (T/C %), life span prolongation",melanoma B-16; 50 μg/kg,189%
same,"Antitumor activities B-16 (T/C %), life span prolongation",melanoma B-16; 100 μg/kg,218%
same,"Antitumor activities B-16 (T/C %), life span prolongation",melanoma B-16; 200 μg/kg,246%
COC1C=CC=C(C)Cc2cc(OS(=O)(=O)c3ccc(N)cc3)c(Cl)c(c2)N(C)C(=O)CC(OC(=O)C(C)C)C2(C)OC2C(C)C2CC1(O)NC(=O)O2 (stereo not drawn) [PDM-3-C20-p-aminobenzenesulfonate],MIC,Tetrahymena pyriformis W,2 to 4 µg/mL
COC1C=CC=C(C)Cc2cc(OS(=O)(=O)c3ccc(Cl)cc3)c(Cl)c(c2)N(C)C(=O)CC(OC(=O)C(C)C)C2(C)OC2C(C)C2CC1(O)NC(=O)O2 (stereo not drawn) [PDM-3-C20-p-chlorobenzenesulfonate],MIC,Tetrahymena pyriformis W,2 µg/mL
COC1C=CC=C(C)Cc2cc(OS(=O)(=O)c3ccc(C)cc3)c(Cl)c(c2)N(C)C(=O)CC(OC(=O)C(C)C)C2(C)OC2C(C)C2CC1(O)NC(=O)O2 (stereo not drawn) [PDM-3-C20-p-toluenesulfonate],MIC,Tetrahymena pyriformis W,1 to 2 µg/mL
